From patent publication US5420010A, “Assay for evaluating inhibition of polymorphonuclear leukocyte elastase by N-substituted azetidinones” (Merck & Co., Inc., priority 1993, dated 1995)

Tested on: HLE:α1 PI complexes
Experiment: Decrease in HLE:α1 PI complexes formed in A23187-stimulated human blood (ELISA)
Assay type: cell-based
Conditions: after treatment with A23187, 100 μM, 30 minutes
Protocol: The blood was then incubated for 30 minutes at 37° C. with 100 μM A23187 (CAL. BIOCHEM.) to stimulate the release of HLE from polymorphonuclear leukocytes. Platelet rich plasma was removed from each sample and prepared for the analysis of HLE:α1 PI complexes by ELISA, and Aα(1-21) by specific RIA.
(Compound B* differs from Compound B only by the substituent on the phenoxy.) A23187, 100 μM, was added and the blood was incubated for an additional 30 minutes. The amounts of reactivation product and α1 PI:elastase complex in the plasma were determined. The total concentration of α1 PI:Elastase complexes formed was 139 μM after treatment with A23187.

In the case of `CNc1ccc2oc(C[C@H]3O[C@@]4(CC[C@H]3C)O[C@H]([C@H](C)C(=O)c3ccc[nH]3)[C@H](C)C[C@H]4C)nc2c1C(=O)O` [Compound A23187], the “total concentration of α1 PI:Elastase complexes formed” value is reported as 139 µM.
